In the test the target is human TRPA1 channel (Homo sapiens (Human), UniProt O75762). Kind of test: TRPA1 inhibitor activity, automated patch clamp (SyncroPatch). The format is cell-based. The following applies: CHO cells inducibly expressing human TRPA1, currents elicited by carvacrol (300 μM), holding potential −60 mV. How it is done: This assay was used to evaluate the disclosed compounds' inhibition activities against the human TRPA1 channel.
CHO cells inducibly expressing human TRPA1 were grown in DMEM containing 10% heat-inactivated FBS, 1 mM Sodium Pyruvate, 2 mM L-Glutamine, Zeocin (100 μg/ml) and Blasticidin (10 μg/ml). Expression was induced by addition of Doxycycline (1 μg/ml) 24 hours before experiments. Cells used for electrophysiology were plated in plastic culture flasks and grown at 37° C. in a 5% CO2-humidified tissue culture incubator per ChanPharm SOP. Stocks were maintained in cryogenic storage.
The cells were bathed in an extracellular solution containing 80 mM NaCl, 60 mM NMDG, 4 mM KCl, 2 mM CaCl2), 6 mM MgCl2, 5 mM Glucose. 10 mM HEPES, 3 mM HEDTA; pH adjusted to 7.4 with NaOH; 305-310 mOsm. All compounds were dissolved in DMSO at 30 mM. The internal solution contained 10 mM CsCl, 110 mM CsF, 10 mM NaCl, 10 mM EGTA, 10 mM HEPES, 4 mM MgATP, 0.25 mM NaGTP, 4 mM BAPTA; pH adjusted to 7.2 with CsOH; 285-290 mOsm. Compound stock solutions were freshly diluted with external solution to concentrations of 3 nM, 10 nM 30 nM, 100 nM, 300 nM, 1 μM, 3 μM, 10 μM, and 30 μM. The highest content of DMSO (0.1%) was present at 30 μM.
All experiments were performed at room temperature. Each cell acted as its own control. In preparation for a current recording session, intracellular solution (see above) was loaded into the intracellular compartments of the automated patch clamp platform SyncroPatch (Nanion) chip and the cell suspension was pipetted into the extracellular compartments. After establishment of a whole-cell configuration, membrane current recordings and compound application were enabled by means of the SyncroPatch. TRPA1 currents were elicited by application of carvacrol (300 μM) at a constant holding potential of −60 mV (see Table A below).
To determine IC50 values, AUC and peak values, obtained in the presence of a given compound concentration, were normalized to control values in absence of compound. Using DataControl384 (Nanion's proprietary software), IC50 values were derived by fitting the normalized data to the Hill equation.

Sequence of human TRPA1 channel (O75762 whole entry): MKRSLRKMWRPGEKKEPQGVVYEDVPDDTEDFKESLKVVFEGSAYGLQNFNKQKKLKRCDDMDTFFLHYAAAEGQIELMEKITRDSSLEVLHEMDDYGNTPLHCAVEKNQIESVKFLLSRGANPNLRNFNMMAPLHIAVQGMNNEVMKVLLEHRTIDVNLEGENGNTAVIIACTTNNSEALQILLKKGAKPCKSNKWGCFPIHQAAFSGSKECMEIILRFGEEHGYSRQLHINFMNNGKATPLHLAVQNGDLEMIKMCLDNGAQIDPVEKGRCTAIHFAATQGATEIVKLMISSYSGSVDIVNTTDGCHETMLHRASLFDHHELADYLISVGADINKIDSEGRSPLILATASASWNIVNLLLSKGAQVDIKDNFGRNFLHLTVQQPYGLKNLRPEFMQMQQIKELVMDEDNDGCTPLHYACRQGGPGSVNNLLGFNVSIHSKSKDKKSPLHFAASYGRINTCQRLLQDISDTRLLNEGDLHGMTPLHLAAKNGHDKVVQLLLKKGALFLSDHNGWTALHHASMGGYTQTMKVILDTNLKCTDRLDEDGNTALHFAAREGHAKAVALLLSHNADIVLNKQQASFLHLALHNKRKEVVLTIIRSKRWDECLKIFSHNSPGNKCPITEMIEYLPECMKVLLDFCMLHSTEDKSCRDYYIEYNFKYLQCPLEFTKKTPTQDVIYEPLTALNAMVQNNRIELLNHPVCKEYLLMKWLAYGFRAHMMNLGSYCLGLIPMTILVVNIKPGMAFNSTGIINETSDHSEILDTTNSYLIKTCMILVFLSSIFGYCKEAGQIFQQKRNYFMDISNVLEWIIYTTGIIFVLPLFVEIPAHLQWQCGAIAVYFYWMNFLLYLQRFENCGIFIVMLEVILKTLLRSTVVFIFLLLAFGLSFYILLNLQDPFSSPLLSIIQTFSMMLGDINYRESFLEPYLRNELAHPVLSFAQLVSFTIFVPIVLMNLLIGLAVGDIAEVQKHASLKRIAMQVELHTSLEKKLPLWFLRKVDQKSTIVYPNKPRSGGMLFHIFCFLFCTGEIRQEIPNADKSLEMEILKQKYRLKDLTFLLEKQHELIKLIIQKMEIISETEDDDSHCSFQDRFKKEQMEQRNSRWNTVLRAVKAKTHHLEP

For `Cc1cccn(Cc2nc(CCc3ccc(Cl)cc3)no2)c1=O` [Compound 1, 1-((3-(4-chlorophenethyl)-1,2,4-oxadiazol-5-yl)methyl)-3-methylpyridin-2(1H)-one], where the note is “Table 4”, the IC50 (usually the concentration needed to halve the response being measured) is below 10 µM.
Molecule `Cc1cc(C#N)cn(Cc2nc(CCc3ccc(Cl)cc3)no2)c1=O` [Compound 2, 1-((3-(4-chlorophenethyl)-1,2,4-oxadiazol-5-yl)methyl)-5-methyl-6-oxo-1,6-dihydropyridine-3-carbonitrile] gave an IC50 (Table 4) below 1 µM.
Where the note is “Table 4”, `N#Cc1cc(Br)c(=O)n(Cc2nc(CCc3ccc(Cl)cc3)no2)c1` [Compound 3, 5-bromo-1-((3-(4-chlorophenethyl)-1,2,4-oxadiazol-5-yl)methyl)-6-oxo-1,6-dihydropyridine-3-carbonitrile] showed an IC50 below 1 µM.
Still for that read-out and setting: the figure for `Cc1cc(Cl)cn(Cc2nc(CCc3ccc(Cl)cc3)no2)c1=O` [Compound 5, 5-chloro-1-((3-(4-chlorophenethyl)-1,2,4-oxadiazol-5-yl)methyl)-3-methylpyridin-2(1H)-one] is below 3 µM.
As for `O=c1c(C(F)(F)F)cccn1Cc1nc(CCc2ccc(Cl)cc2)no1` [Compound 7, 1-((3-(4-chlorophenethyl)-1,2,4-oxadiazol-5-yl)methyl)-3-(trifluoromethyl)pyridin-2(1H)-one], for the setting “Table 4”, the IC50 was below 10 µM.
Molecule `CNC(=O)c1cc(C)c(=O)n(Cc2nc(CCc3ccc(Cl)cc3)no2)c1` [Compound 9, 1-((3-(4-chlorophenethyl)-1,2,4-oxadiazol-5-yl)methyl)-N,5-dimethyl-6-oxo-1,6-dihydropyridine-3-carboxamide] showed an IC50 (Table 4) below 1 µM.
The same measure, in the same setting: the figure for `COC(=O)c1cc(C)c(=O)n(Cc2nc(CCc3ccc(Cl)cc3)no2)c1` [Compound 10, methyl 1-((3-(4-chlorophenethyl)-1,2,4-oxadiazol-5-yl)methyl)-5-methyl-6-oxo-1,6-dihydropyridine-3-carboxylate] is below 3 µM.
Under “Table 4”, `Cc1c(CO)ccn(Cc2nc(CCc3ccc(Cl)cc3)no2)c1=O` [Compound 11, 1-((3-(4-chlorophenethyl)-1,2,4-oxadiazol-5-yl)methyl)-4-(hydroxymethyl)-3-methylpyridin-2(1H)-one] displayed an IC50 below 3 µM.
Still for that read-out and setting: next, `Cc1c(Br)ccn(Cc2nc(CCc3ccc(Cl)cc3)no2)c1=O` [Compound 12, 4-bromo-1-((3-(4-chlorophenethyl)-1,2,4-oxadiazol-5-yl)methyl)-3-methylpyridin-2(1H)-one]: below 3 µM.
The same measure, in the same setting: next, `C=Cc1ccn(Cc2nc(CCc3ccc(Cl)cc3)no2)c(=O)c1C` [Compound 13, 1-((3-(4-chlorophenethyl)-1,2,4-oxadiazol-5-yl)methyl)-3-methyl-4-vinylpyridin-2(1H)-one]: below 3 µM; `Cc1c(-c2cn[nH]c2)ccn(Cc2nc(CCc3ccc(Cl)cc3)no2)c1=O` [Compound 15, 1-((3-(4-chlorophenethyl)-1,2,4-oxadiazol-5-yl)methyl)-3-methyl-4-(1H-pyrazol-4-yl)pyridin-2(1H)-one]: below 3 µM.
Same read-out and setting: the figure for `Cc1cc(CO)cn(Cc2nc(CCc3ccc(Cl)cc3)no2)c1=O` [Compound 16, 1-((3-(4-chlorophenethyl)-1,2,4-oxadiazol-5-yl)methyl)-5-(hydroxymethyl)-3-methylpyridin-2(1H)-one] is below 3 µM; for `Cc1cc(CC#N)cn(Cc2nc(CCc3ccc(Cl)cc3)no2)c1=O` [Compound 19, 2-(1-((3-(4-chlorophenethyl)-1,2,4-oxadiazol-5-yl)methyl)-5-methyl-6-oxo-1,6-dihydropyridin-3-yl)acetonitrile] it is below 1 µM.
As for `Cc1cc(CC(N)=O)cn(Cc2nc(CCc3ccc(Cl)cc3)no2)c1=O` [Compound 20, 2-(1-((3-(4-chlorophenethyl)-1,2,4-oxadiazol-5-yl)methyl)-5-methyl-6-oxo-1,6-dihydropyridin-3-yl)acetamide], the IC50 (Table 4) is below 10 µM.
Take `O=c1c(Cl)nc(Br)cn1Cc1nc(C[C@H](O)c2ccc(Cl)cc2)no1` [Compound 21, (S)-5-bromo-3-chloro-1-((3-(2-(4-chlorophenyl)-2-hydroxyethyl)-1,2,4-oxadiazol-5-yl)methyl)pyrazin-2(1H)-one]: for the setting “Table 4”, the IC50 was below 0.3 µM.
The same measure, in the same setting: the figure for `Cc1nc(C)c(=O)n(Cc2nc(CCc3ccc(Cl)cc3)no2)c1C` [Compound 23, 1-((3-(4-chlorophenethyl)-1,2,4-oxadiazol-5-yl)methyl)-3,5,6-trimethylpyrazin-2(1H)-one] is below 1 µM; for `Cc1nc(Cl)cn(Cc2nc(CCc3ccc(Cl)cc3)no2)c1=O` [Compound 24, 5-chloro-1-((3-(4-chlorophenethyl)-1,2,4-oxadiazol-5-yl)methyl)-3-methylpyrazin-2(1H)-one] it is below 1 µM.
In the case of `Cc1nccn(Cc2nc(CCc3ccc(Cl)cc3)no2)c1=O` [Compound 25, 1-((3-(4-chlorophenethyl)-1,2,4-oxadiazol-5-yl)methyl)-3-methylpyrazin-2(1H)-one], for the setting “Table 4”, the IC50 is below 3 µM.
`Nc1c(Cl)c(F)n(Cc2nc(C[C@H](O)c3ccc(Cl)cc3)no2)c(=O)c1Cl` [Compound 28, (S)-4-amino-3,5-dichloro-1-((3-(2-(4-chlorophenyl)-2-hydroxyethyl)-1,2,4-oxadiazol-5-yl)methyl)-6-fluoropyridin-2(1H)-one] gave an IC50 (Table 4) below 1 µM.
The same measure, in the same setting: the figure for `Cc1ncc(C)n(Cc2nc(C[C@H](O)c3ccc(Cl)cc3)no2)c1=O` [Compound 31, (S)-1-((3-(2-(4-chlorophenyl)-2-hydroxyethyl)-1,2,4-oxadiazol-5-yl)methyl)-3,6-dimethylpyrazin-2(1H)-one] is below 1 µM.
Turning to `Cc1cn(Cc2nc(C[C@H](O)c3ccc(Cl)cc3)no2)c(=O)c(C)n1` [Compound 32, (S)-1-((3-(2-(4-chlorophenyl)-2-hydroxyethyl)-1,2,4-oxadiazol-5-yl)methyl)-3,5-dimethylpyrazin-2(1H)-one], the IC50 (Table 4) is below 1 µM.
`Cc1c(N)ncn(Cc2nc(C[C@H](O)c3ccc(Cl)cc3)no2)c1=O` [Compound 33, (S)-6-amino-3-((3-(2-(4-chlorophenyl)-2-hydroxyethyl)-1,2,4-oxadiazol-5-yl)methyl)-5-methylpyrimidin-4(3H)-one] returned an IC50 (Table 4) below 1 µM.
For the molecule `Cc1ccc(Cl)c(=O)n1Cc1nc(C[C@H](O)c2ccc(Cl)cc2)no1` [Compound 34, (S)-3-chloro-1-((3-(2-(4-chlorophenyl)-2-hydroxyethyl)-1,2,4-oxadiazol-5-yl)methyl)-6-methylpyridin-2(1H)-one], the IC50 (Table 4) is below 1 µM.
The molecule `NC(=O)c1ncn(Cc2nc(C[C@H](O)c3ccc(Cl)cc3)no2)c(=O)c1Cl` [Compound 62, (S)-5-chloro-1-((3-(2-(4-chlorophenyl)-2-hydroxyethyl)-1,2,4-oxadiazol-5-yl)methyl)-6-oxo-1,6-dihydropyrimidine-4-carboxamide] displayed an IC50 (Table 5) below 1 µM.
For `O=c1c(Cl)c(Cl)ncn1Cc1nc(C[C@H](O)c2ccc(Cl)cc2)no1` [Compound 64, (S)-5,6-dichloro-3-((3-(2-(4-chlorophenyl)-2-hydroxyethyl)-1,2,4-oxadiazol-5-yl)methyl)pyrimidin-4(3H)-one], the IC50 (Table 5) was below 0.1 µM.
Where the note is “Table 5”, `Cc1ncn(Cc2nc(C[C@H](O)c3ccc(Cl)cc3)no2)c(=O)c1C` [Compound 68, (S)-3-((3-(2-(4-chlorophenyl)-2-hydroxyethyl)-1,2,4-oxadiazol-5-yl)methyl)-5,6-dimethylpyrimidin-4(3H)-one] came in with an IC50 below 0.3 µM.
Turning to `Cc1ncc(Cl)c(=O)n1Cc1nc(C[C@H](O)c2ccc(Cl)cc2)no1` [Compound 69, (S)-5-chloro-3-((3-(2-(4-chlorophenyl)-2-hydroxyethyl)-1,2,4-oxadiazol-5-yl)methyl)-2-methylpyrimidin-4(3H)-one], under “Table 5”, the IC50 is below 1 µM.
For the setting “Table 5”, `Nc1ncn(Cc2nc(C[C@H](O)c3ccc(Cl)cc3)no2)c(=O)c1Cl` [Compound 72, (S)-6-amino-5-chloro-3-((3-(2-(4-chlorophenyl)-2-hydroxyethyl)-1,2,4-oxadiazol-5-yl)methyl)pyrimidin-4(3H)-one] registered an IC50 below 0.3 µM.
Same read-out and setting: the figure for `O=c1c(Cl)c(-c2cn[nH]c2)ccn1Cc1nc(C[C@H](O)c2ccc(Cl)cc2)no1` [Compound 74, (S)-3-chloro-1-((3-(2-(4-chlorophenyl)-2-hydroxyethyl)-1,2,4-oxadiazol-5-yl)methyl)-4-(1H-pyrazol-4-yl)pyridin-2(1H)-one] is below 1 µM.

(Values after patent US20250270198A1, “PYRIDONE COMPOUNDS AS TRPA1 INHIBITORS” (D. E. Shaw Research, LLC, priority 2022, published 2025).)
